Experimental data reported in ChEMBL document CHEMBL1147214, “Tetraplex DNA specific ligands based on the fluorenone-carboxamide scaffold” (Bioorg Med Chem Lett, 2007).

Experiments:
Salmonidae [1] = assay: Effect on Salmon testes DNA stabilization assessed as thermal denaturation at 100 uM; type: functional
Salmonidae [2] = assay: Binding affinity to Salmon testes DNA

| Compound | Ka (Salmonidae [2]) | ΔTm (Salmonidae [1]) |
| --- | --- | --- |
| CN(C)CCCNC(=O)c1cccc2c1-c1ccccc1C2=O | 3.1 10^4/M | 2.1 °C |
| O=C(NCCOCCO)c1cccc2c1-c1ccccc1C2=O |  | 0.2 °C |
| CCN(CC)CCNC(=O)c1cccc2c1-c1ccccc1C2=O | 7.8 10^4/M | 2.1 °C |
| O=C(NCCCCO)c1cccc2c1-c1ccccc1C2=O |  | -0.8 °C |
| O=C(NCCO)c1cccc2c1-c1ccccc1C2=O |  | 1.9 °C |
| CC(O)CNC(=O)c1cccc2c1-c1ccccc1C2=O (stereo unspecified) |  | 2.1 °C |

Second part, led by results:

| Ka (Salmonidae [2]) | Compound | ΔTm (Salmonidae [1]) |
| --- | --- | --- |
| 3.3 10^3/M | CN(C)CCNC(=O)c1cccc2c1-c1ccccc1C2=O | 0.2 °C |
| 2.3 10^4/M | O=C(NCCCN1CCOCC1)c1cccc2c1-c1ccccc1C2=O | -0.8 °C |
| 1.6 10^5/M | O=C(NCCN1CCOCC1)c1cccc2c1-c1ccccc1C2=O | 1.2 °C |
| 8.4 10^3/M | O=C(NCCCO)c1cccc2c1-c1ccccc1C2=O | 3.1 °C |
